Data published in patent US10196373B2, “Substituted 2-hydroxy-4-(2-(phenylsulfonamido)acetamido)benzoic acid analogs as inhibitors of STAT protein” (University of Central Florida Research Foundation, Inc., priority 2010, dated 2019).

What was measured:
[1] = tested on: MDA-468 cells; assay: Cell viability, MTS assay; assay type: cell-based; details: Homo sapiens, MDA-468, 72 hours
Method: (§1) To further test activity of these molecules, a whole-cell study involving cancer lines with known abherrant STAT3 expression was conducted. These human cell lines, including prostate cancer (DU145), breast cancer (MDA468), and promyelocytic leukemia (HL-60) were treated with the peptidomimetics and incubated for 72 hours. Disruption of cell viability was measured by MTS assay and IC50 values for the potential inhibitors was determined. OriginPro 8 (Northampton, Mass.) was used to evaluate EC50 using the dose response curve defined as follows:
(§2) [formula] where y is the fraction of death, x is the log of drug concentration. A2 is the top asymptote, A1 is the bottom asymptote, logx0 is the center of the curve, and p is the hill slope.

[2] = tested on: DU-145 cells; assay: Cell viability, MTS assay; assay type: cell-based; details: Homo sapiens, DU-145, 72 hours
Method: as §1, §2

[3] = tested on: HL60 cells; assay: Cell viability, MTS assay; assay type: cell-based; details: Homo sapiens, HL-60, HL60, 72 hours
Method: as §1, §2

[4] = tested on: OCI-AMI.2 cells; assay: Cell viability, MTS assay; assay type: cell-based
[5] = target: STAT3 (Homo sapiens (Human), UniProt P40763); assay: Fluorescence polarization assay, inhibition of binding to STAT3; details: inhibition of binding to STAT3 in a fluorescence polarization assay; read-out: Ki (FP)
Method: The fluorescent polarization experiments were performed on an Infinite M1000 (Tecan, Crailsheim, Germany). All assays were performed in the same buffer conditions of 50 mM NaCl, 10 mM Hepes, pH 7.5, 1 mM EDTA, and 2 mM dithiothreitol. Fluorescent-labelled peptides were kept at a final concentration of 10nM in buffered solution. […] of labelled peptides were added to […] of a 300 nM STAT3 protein solution (provided by SignalChem in 50 mM Tris-HCl, pH 7.5, 150 mM NaCl, 0.25 mM DTT, 0.1 mM PMSF, 25% glycerol and stored at −80° C.). Inhibitory molecules were dissolved in pure DMSO and diluted using buffer solution to produce four final concentrations ([…]). 7.5 μL of the inhibitory molecule solution was mixed with the STAT3 protein and labelled peptide solution in black 384-flat well microplates (Coming), and incubated for 15-30 minutes. The M1000 performed a shaking cycle and then read the plates. IC50′s were derived from the output using the curve-fitting software OriginPro 8 (Northampton, MA). The FP data was modelled by the following equation:
[formula] where X was the concentration of inhibitor and ρwas the corresponding fluorescence at that concentration. The free parameter was half the maximal inhibitory concentration (IC50) and the limiting values was the maximal measured fluorescence polarization (ρ1) and the minimal fluorescence polarization (ρ2). Origin curve fitting software utilizes the Levenberg-Marquardt algorithm and reduced chi-square criterion for convergence. The inhibitor dissociation constant, Ki, was calculated from the derived IC50 values, as per the following formula: […]
Further details of the fluorescence polarization assay are as described previously (Zhang X, et al. (2010) A novel small-molecule disrupts Stat3 SH2domainphosphotyrosine interactions and Stat3-dependent tumor processes. Biochem Pharmacol 79: 1398-1409).

STAT3, sequence (P40763 whole entry): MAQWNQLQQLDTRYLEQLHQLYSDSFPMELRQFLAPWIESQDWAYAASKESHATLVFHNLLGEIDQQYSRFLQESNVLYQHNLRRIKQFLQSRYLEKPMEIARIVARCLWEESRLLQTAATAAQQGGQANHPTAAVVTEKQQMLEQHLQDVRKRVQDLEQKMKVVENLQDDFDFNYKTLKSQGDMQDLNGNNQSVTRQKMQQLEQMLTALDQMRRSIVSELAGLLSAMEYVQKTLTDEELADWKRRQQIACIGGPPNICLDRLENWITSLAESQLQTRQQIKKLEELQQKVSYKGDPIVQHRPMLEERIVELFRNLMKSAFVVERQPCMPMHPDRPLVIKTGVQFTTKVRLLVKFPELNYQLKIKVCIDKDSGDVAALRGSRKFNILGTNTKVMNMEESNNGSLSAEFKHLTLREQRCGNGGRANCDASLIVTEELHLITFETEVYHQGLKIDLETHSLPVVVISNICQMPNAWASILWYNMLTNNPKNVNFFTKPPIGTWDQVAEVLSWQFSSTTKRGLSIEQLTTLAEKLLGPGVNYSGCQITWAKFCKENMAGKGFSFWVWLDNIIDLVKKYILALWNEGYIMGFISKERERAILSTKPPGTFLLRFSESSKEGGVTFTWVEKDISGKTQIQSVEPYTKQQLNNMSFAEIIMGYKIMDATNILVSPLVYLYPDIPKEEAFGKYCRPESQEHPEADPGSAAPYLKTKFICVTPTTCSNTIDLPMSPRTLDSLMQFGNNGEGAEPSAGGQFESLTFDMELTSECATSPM

## CN(CC(=O)N(Cc1ccc(C2CCCCC2)cc1)c1ccc(C(=O)O)c(O)c1)S(=O)(=O)c1cn(C)cn1 [Compound 45H, 4-(N-(4-cyclohexylbenzyl)-2-(N,1-dimethyl-1H-imidazole-4-sulfonamido)acetamido)-2-hydroxybenzoic acid]
[1]
  IC50: > 100 µM
[2]
  IC50: > 100 µM
[3]
  IC50: > 100 µM
[4]
  IC50: > 100 µM

## CN(CC(=O)N(Cc1ccc(C2CCCCC2)cc1)c1ccc(C(=O)O)c(O)c1)S(=O)(=O)c1ccc(Br)cc1 [Compound 45J]
[1]
  IC50: 19.5 ± 2 µM
[2]
  IC50: 45.9 ± 8.6 µM
[3]
  IC50: 47.4 ± 8.2 µM
[4]
  IC50: 44.9 ± 7.1 µM

## COc1ccc(S(=O)(=O)N(C)CC(=O)N(Cc2ccc(C3CCCCC3)cc2)c2ccc(C(=O)O)c(O)c2)cc1 [Compound 45M, 4-(N-(4-cyclohexylbenzyl)-2-(4-methoxy-N-methylphenylsulfonamido)acetamido)-2-hydroxybenzoic acid]
[1]
  IC50: 71.4 ± 13.6 µM
[2]
  IC50: 92.7 ± 27.9 µM
[3]
  IC50: > 100 µM
[4]
  IC50: > 100 µM

## Cc1ccc(S(=O)(=O)N(C)CC(=O)N(Cc2ccc(-c3ccc(C(=O)O)cc3)cc2)c2ccc(C(=O)O)c(O)c2)cc1 [Compound 27LE, 4′-((N-(4-carboxy-3-hydroxyphenyl)-2-(N,4-dimethylphenylsulfonamido)acetamido)methyl)-[1,1′-biphenyl]-4-carboxylic acid]
[1]
  IC50: 52.9 ± 22.5 µM
[2]
  IC50: > 100 µM
[3]
  IC50: 68 ± 32.8 µM
[4]
  IC50: 76.7 ± 27.1 µM

## COC(=O)c1ccc(-c2ccc(-c3ccc(CN(C(=O)CN(C)S(=O)(=O)c4ccc(C)cc4)c4ccc(C(=O)O)c(O)c4)cc3)cc2)cc1 [Compound 27NE]
[1]
  IC50: 96.3 ± 31.7 µM
[2]
  IC50: > 100 µM
[3]
  IC50: > 100 µM
[4]
  IC50: > 100 µM

## Cc1ccc(S(=O)(=O)N(C)CC(=O)N(Cc2ccc(-c3ccc(-c4ccc(C#N)cc4)cc3)cc2)c2ccc(C(=O)O)c(O)c2)cc1 [Compound 27NG, 4-(N-((4′-cyanoterphenyl-4-yl)methyl)-2-(N,4-dimethylphenylsulfonamido)acetamido)-2-hydroxybenzoic acid]
[1]
  IC50: 32.5 ± 15.5 µM
[2]
  IC50: 94.4 ± 6.8 µM
[3]
  IC50: 37.4 ± 14 µM
[4]
  IC50: 58.4 ± 13.8 µM

## Cc1cccc(S(=O)(=O)N(C)CC(=O)N(Cc2ccc(C3CCCCC3)cc2)c2ccc(C(=O)O)c(O)c2)c1 [Compound 45A, 4-(N-(4-cyclohexylbenzyl)-2-(N,3-dimethylphenylsulfonamido)acetamido)-2-hydroxy-benzoic acid]
[1]
  IC50: 59.6 ± 4 µM
[2]
  IC50: 90.4 ± 3.1 µM
[3]
  IC50: 78.5 ± 1.8 µM
[4]
  IC50: 85.9 ± 0.4 µM

## Cc1ccc(S(=O)(=O)N(CC(=O)N(Cc2ccc(C3CCCCC3)cc2)c2ccc(C(=O)O)c(O)c2)Cc2cccc(C#N)c2)cc1 [BP3-023]
[5]
  Ki: 6.2 ± 0.8 µM

## Cc1ccc(S(=O)(=O)N(CC(=O)N(Cc2ccc(C3CCCCC3)cc2)c2ccc(C(=O)O)c(O)c2)Cc2ccccc2)cc1 [BP2-027]
[5]
  Ki: 7.2 ± 2.2 µM

## Cc1ccc(S(=O)(=O)N(CC(=O)N(Cc2ccc(C3CCCCC3)cc2)c2ccc(C(=O)O)c(O)c2)Cc2ccccc2[N+](=O)[O-])cc1 [BP3-020]
[5]
  Ki: 5 ± 6.5 µM

## Cc1ccc(S(=O)(=O)N(CC(=O)N(Cc2ccc(C3CCCCC3)cc2)c2ccc(C(=O)O)c(O)c2)Cc2ccc(C#N)cc2)cc1 [BP3-021]
[5]
  Ki: 4.3 ± 0.7 µM

## Cc1ccc(S(=O)(=O)N(CC(=O)N(Cc2ccc(C3CCCCC3)cc2)c2ccc(C(=O)O)c(O)c2)Cc2cccc(OC(F)(F)F)c2)cc1 [XW1-055]
[5]
  Ki: 4 ± 1.1 µM

## CN(CC(=O)N(Cc1ccc(C2CCCCC2)cc1)c1ccc(C(=O)O)c(O)c1)S(=O)(=O)c1ccc(F)cc1 [Compound 45L, 4-(N-(4-cyclohexylbenzyl)-2-(4-fluoro-N-methylphenylsulfonamido)acetamido)-2-hydroxy benzoic acid]
[1]
  IC50: 41.3 ± 5.7 µM
[2]
  IC50: 72.7 ± 18.4 µM
[3]
  IC50: 75.1 ± 25.1 µM
[4]
  IC50: 84.4 ± 22.1 µM

## Cc1ccc(S(=O)(=O)N(CC(=O)N(Cc2ccc(C3CCCCC3)cc2)c2ccc(C(=O)O)c(O)c2)Cc2ccccc2C(F)(F)F)cc1 [BP2-061]
[5]
  Ki: 1.8 ± 2.3 µM

## Cc1ccc(S(=O)(=O)N(CC(=O)N(Cc2ccc(C3CCCCC3)cc2)c2ccc(C(=O)O)c(O)c2)Cc2ccccc2Cl)cc1 [SH3-079]
[5]
  Ki: 7.9 ± 0.3 µM

## Cc1ccc(S(=O)(=O)N(CC(=O)N(Cc2ccc(C3CCCCC3)cc2)c2ccc(C(=O)O)c(O)c2)Cc2ccc3ccccc3c2)cc1 [BP2-057]
[5]
  Ki: 2.5 ± 1 µM

## CN(CC(=O)N(Cc1ccc(C2CCCCC2)cc1)c1ccc(C(=O)O)c(O)c1)S(=O)(=O)c1ccc(C#N)cc1 [Compound 45I, 4-(2-(4-cyano-N-methylphenylsulfonamido)-N-(4-cyclohexylbenzyl)acetamido)-2-hydroxy-benzoic acid]
[1]
  IC50: 27 ± 2.7 µM
[2]
  IC50: 69.6 ± 3.4 µM
[3]
  IC50: 59.1 ± 11.5 µM
[4]
  IC50: 53.5 ± 22.8 µM

## Cc1ccc(S(=O)(=O)N(CC(=O)N(Cc2ccc(C3CCCCC3)cc2)c2ccc(C(=O)O)c(O)c2)Cc2cccc(C)c2)cc1 [BP2-056]
[5]
  Ki: 2.6 ± 0.2 µM

## CN(CC(=O)N(Cc1ccc(C2CCCCC2)cc1)c1ccc(C(=O)O)c(O)c1)S(=O)(=O)c1ccc([N+](=O)[O-])cc1 [Compound 45N, 4-(N-(4-cyclohexylbenzyl)-2-(N-methyl-4-nitrophenylsulfonamido)acetamido)-2-hydroxy benzoic acid]
[1]
  IC50: 51.7 ± 14.2 µM
[2]
  IC50: > 100 µM
[3]
  IC50: 99.3 ± 62.1 µM
[4]
  IC50: 96.3 ± 18.5 µM

## Cc1ccc(CN(CC(=O)N(Cc2ccc(C3CCCCC3)cc2)c2ccc(C(=O)O)c(O)c2)S(=O)(=O)c2ccc(C)cc2)cc1 [BP2-028]
[5]
  Ki: > 50 µM

## Cc1ccc(S(=O)(=O)N(CC(=O)N(Cc2ccc(C3CCCCC3)cc2)c2ccc(C(=O)O)c(O)c2)Cc2cccc([N+](=O)[O-])c2)cc1 [BP3-019]
[5]
  Ki: 2.5 ± 2.2 µM

## Cc1ccc(S(=O)(=O)N(CC(=O)N(Cc2ccc(C3CCCCC3)cc2)c2ccc(C(=O)O)c(O)c2)Cc2ccc(Cl)cc2)cc1 [SH3-076]
[5]
  Ki: 3.1 ± 0.1 µM

## Cc1ccc(S(=O)(=O)N(CC(=O)N(Cc2ccc(C3CCCCC3)cc2)c2ccc(C(=O)O)c(O)c2)Cc2ccccn2)cc1 [BP2-131]
[5]
  Ki: 22.6 ± 3 µM

## Cc1ccc(S(=O)(=O)N(CC(=O)N(Cc2ccc(C3CCCCC3)cc2)c2ccc(C(=O)O)c(O)c2)Cc2cccc(N)c2)cc1 [BP3-016]
[5]
  Ki: 6.2 ± 1.6 µM

## Cc1ccc(S(=O)(=O)N(CC(N)=O)CC(=O)N(Cc2ccc(C3CCCCC3)cc2)c2ccc(C(=O)O)c(O)c2)cc1 [BP2-124]
[5]
  Ki: 48.7 ± 14.2 µM

## Cc1ccc(S(=O)(=O)N(CC(=O)N(Cc2ccc(C3CCCCC3)cc2)c2ccc(C(=O)O)c(O)c2)Cc2ccccc2C#N)cc1 [BP3-024]
[5]
  Ki: 11.3 ± 0.8 µM

## Cc1ccc(S(=O)(=O)N(CC(=O)N(Cc2ccc(C3CCCCC3)cc2)c2ccc(C(=O)O)c(O)c2)Cc2ccccc2OC(F)(F)F)cc1 [XW1-061]
[5]
  Ki: 3.6 ± 0.5 µM

## Cc1ccc(S(=O)(=O)N(CC(=O)N(Cc2ccc(C3CCCCC3)cc2)c2ccc(C(=O)O)c(O)c2)Cc2ccncc2)cc1 [BP2-086]
[5]
  Ki: 23.3 ± 0.7 µM

## Cc1ccc(S(=O)(=O)N(CC(=O)N(Cc2ccc(C3CCCCC3)cc2)c2ccc(C(=O)O)c(O)c2)Cc2cccnc2)cc1 [BP2-130]
[5]
  Ki: 25.4 ± 0.8 µM

## Cc1ccc(S(=O)(=O)N(CC(=O)N(Cc2ccc(C3CCCCC3)cc2)c2ccc(C(=O)O)c(O)c2)Cc2cccc(F)c2)cc1 [BP2-066]
[5]
  Ki: 4.4 ± 0.3 µM

## Cc1ccc(S(=O)(=O)N(CC(=O)N(Cc2ccc(C3CCCCC3)cc2)c2ccc(C(=O)O)c(O)c2)Cc2c(F)cc(F)c(F)c2F)cc1 [BP2-119]
[5]
  Ki: 7.7 ± 1 µM
